# Measurements as given in patent EP0550016A1, “Novel quinolone carboxylic acid derivatives and processes for preparing same” (KOREA RESEARCH INSTITUTE OF CHEMICAL TECHNOLOGY, priority 1991, dated 1993).
# Like-named read-outs stand apart in the source and are kept apart here.
# Tests used:
# Escherichia coli DC 2 = experiment: In vitro anti-bacterial activity test (MIC, two-fold dilution method) against the standard strains; assay type: cell-based; conditions: DC2
# [1] = system: Streptococcus pyogenes 77 A; experiment: as above; assay type: cell-based; conditions: Table 1 strain 2: Streptococcus pyogenes 77 A; read-out: MIC
# [2] = system: Pseudomonas aeruginosa 1771; experiment: as above; assay type: cell-based; conditions: Table 1 strain 14: Pseudomonas aeruginosa 1771
# [3] = system: Staphylococcus aureus SG 511; experiment: as above; assay type: cell-based; conditions: SG511; Table 1 strain 4: Staphylococcus aureus SG 511
# S. aureus 17740 = experiment: Preventive effect against the systemic infection; assay type: in vivo; conditions: Staphylococcus aureus, 168 h, NMRI mice, survival on day 7, read-out: ED₅₀
# Experimental: (§1) 10 fold of the pathogen which leads to 100% lethality were injected intraperitoneally to male and female NMRI mice weighing 18 to 20g. Immediately and after 4 hours, the dose of test compounds which was determined by two-fold serial dilution method was administered orally or subcutaneously; and on day 7, the effectiveness was evaluated in terms of ED₅₀ calculated from the number of survived mice by the probit analysis.
# P. mirabilis = experiment: Preventive effect against the systemic infection; assay type: in vivo; conditions: Proteus mirabilis, 168 h, NMRI mice, survival on day 7, read-out: ED₅₀
# Experimental: as §1
# [4] = system: Enterobacter cloacae 1321 E; experiment: In vitro anti-bacterial activity test (MIC, two-fold dilution method) against the standard strains; assay type: cell-based; conditions: Table 1 strain 20: Enterobacter cloacae 1321 E
# [5] = system: Staphylococcus aureus 503; experiment: as above; assay type: cell-based; conditions: Table 1 strain 6: Staphylococcus aureus 503; read-out: MIC
# [6] = system: Staphylococcus aureus 285; experiment: as above; assay type: cell-based; conditions: Table 1 strain 5: Staphylococcus aureus 285; read-out: MIC
# Escherichia coli 1507 E = experiment: as above; assay type: cell-based; conditions: Table 1 strain 11: Escherichia coli 1507 E
# Salmonella typhimurium = experiment: as above; assay type: cell-based; conditions: Salmonella enterica; Table 1 strain 16: Salmonella typhimurium
# [7] = system: Klebsiella aerogenes 1082 E; experiment: as above; assay type: cell-based; conditions: Table 1 strain 17: Klebsiella aerogenes 1082 E
# [8] = system: Streptococcus pyogenes 308 A; experiment: as above; assay type: cell-based; conditions: Table 1 strain 1: Streptococcus pyogenes 308 A
# [9] = system: Pseudomonas aeruginosa 1592 E; experiment: as above; assay type: cell-based; conditions: Table 1 strain 13: Pseudomonas aeruginosa 1592 E
# Escherichia coli DC 0 [10] = experiment: as above; assay type: cell-based; conditions: DC0; Table 1 strain 7: Escherichia coli DC 0
# [11] = system: Enterobacter cloacae P 99; experiment: as above; assay type: cell-based; conditions: P99; Table 1 strain 19: Enterobacter cloacae P 99
# [12] = system: Streptococcus faecium MD 8b; experiment: as above; assay type: cell-based; conditions: Enterococcus faecium, MD8B; Table 1 strain 3: Streptococcus faecium MD 8b; read-out: MIC
# [13] = system: Klebsiella aerogenes 1522 E; experiment: as above; assay type: cell-based; conditions: Table 1 strain 18: Klebsiella aerogenes 1522 E
# [14] = system: Pseudomonas aeruginosa 1771 M; experiment: as above; assay type: cell-based; conditions: Table 1 strain 15: Pseudomonas aeruginosa 1771 M
# [15] = system: Pseudomonas aeruginosa 9027; experiment: as above; assay type: cell-based; conditions: Table 1 strain 12: Pseudomonas aeruginosa 9027
# Acute Toxicity Test = conditions: mouse, in vivo, female ICR mice, day 14, read-out: Acute Toxicity(LD₅₀)
# Experimental: Test compounds were administered to female ICR mice weighing 20 to 25g and on day 14, LD₅₀ was calculated from the number of survived mice by the probit analysis.
# Escherichia coli OTEM = experiment: In vitro anti-bacterial activity test (MIC, two-fold dilution method) against the standard strains; assay type: cell-based; conditions: Table 1 strain 10: Escherichia coli OTEM
# Escherichia coli DC 0 [16] = experiment: as above; assay type: cell-based; conditions: DC0; Table 1 strain 8: Escherichia coli DC 0
# [17] = system: Staphylococcus aureus 256 E; experiment: In vitro anti-bacterial activity test (MIC, two-fold dilution method), Table 2 strains; assay type: cell-based; conditions: Table 2 strain 4: Staphylococcus aureus 256 E
# [18] = system: Staphylococcus aureus 703 E; experiment: as above; assay type: cell-based; conditions: Table 2 strain 12: Staphylococcus aureus 703 E; read-out: MIC
# [19] = system: Staphylococcus aureus 711 E; experiment: as above; assay type: cell-based; conditions: Table 2 strain 17: Staphylococcus aureus 711 E; read-out: MIC
# [20] = system: Staphylococcus aureus 690 E; experiment: as above; assay type: cell-based; conditions: Table 2 strain 5: Staphylococcus aureus 690 E; read-out: MIC
# [21] = system: Staphylococcus aureus 708 E; experiment: as above; assay type: cell-based; conditions: Table 2 strain 16: Staphylococcus aureus 708 E
# [22] = system: Staphylococcus aureus 697 E; experiment: as above; assay type: cell-based; conditions: Table 2 strain 10: Staphylococcus aureus 697 E
# [23] = system: Staphylococcus aureus 88 E; experiment: as above; assay type: cell-based; conditions: Table 2 strain 1: Staphylococcus aureus 88 E
# [24] = system: Staphylococcus aureus 707 E; experiment: as above; assay type: cell-based; conditions: Table 2 strain 15: Staphylococcus aureus 707 E; read-out: MIC
# [25] = system: Staphylococcus aureus 725 E; experiment: as above; assay type: cell-based; conditions: Table 2 strain 19: Staphylococcus aureus 725 E; read-out: MIC
# [26] = system: Staphylococcus aureus 714 E; experiment: as above; assay type: cell-based; conditions: Table 2 strain 18: Staphylococcus aureus 714 E; read-out: MIC
# [27] = system: Staphylococcus aureus 701 E; experiment: as above; assay type: cell-based; conditions: Table 2 strain 11: Staphylococcus aureus 701 E; read-out: MIC
# [28] = system: Staphylococcus aureus 692 E; experiment: as above; assay type: cell-based; conditions: Table 2 strain 6: Staphylococcus aureus 692 E
# [29] = system: Staphylococcus aureus 695 E; experiment: as above; assay type: cell-based; conditions: Table 2 strain 9: Staphylococcus aureus 695 E; read-out: MIC
# [30] = system: Staphylococcus aureus 694 E; experiment: as above; assay type: cell-based; conditions: Table 2 strain 8: Staphylococcus aureus 694 E; read-out: MIC
# [31] = system: Staphylococcus aureus 693 E; experiment: as above; assay type: cell-based; conditions: Table 2 strain 7: Staphylococcus aureus 693 E; read-out: MIC
# [32] = system: Staphylococcus aureus 706 E; experiment: as above; assay type: cell-based; conditions: Table 2 strain 14: Staphylococcus aureus 706 E; read-out: MIC
# [33] = system: Staphylococcus aureus 705 E; experiment: as above; assay type: cell-based; conditions: Table 2 strain 13: Staphylococcus aureus 705 E; read-out: MIC
# [34] = system: Staphylococcus aureus 208 E; experiment: as above; assay type: cell-based; conditions: Table 2 strain 3: Staphylococcus aureus 208 E; read-out: MIC
# [35] = system: Staphylococcus aureus 121 E; experiment: as above; assay type: cell-based; conditions: Table 2 strain 2: Staphylococcus aureus 121 E; read-out: MIC
# [36] = Table 1 strain 9: Escherichia coli DC 2, read-out: MIC
SMILES,MIC (Escherichia coli DC 2; [36]) [µg/mL],MIC [1] [µg/mL],MIC [2] [µg/mL],MIC [3] [µg/mL],MIC [4] [µg/mL],MIC [5] [µg/mL],MIC [6] [µg/mL],MIC (Escherichia coli 1507 E) [µg/mL],MIC (Salmonella typhimurium) [µg/mL],MIC [7] [µg/mL],MIC [8] [µg/mL],MIC [9] [µg/mL],MIC (Escherichia coli DC 0 [10]) [µg/mL],MIC [11] [µg/mL],MIC [12] [µg/mL],MIC [13] [µg/mL],MIC [14] [µg/mL],MIC [15] [µg/mL],MIC (Escherichia coli OTEM) [µg/mL],MIC (Escherichia coli DC 0 [16]) [µg/mL],other results
"NC1CC12CCN(c1c(F)cc3c(=O)c(C(=O)O)cn(C4CC4)c3c1F)C2 (stereo not shown) [Example 1, 7-(1-amino-5-azaspiro[2,4]heptane-5-yl)-1-cyclopropyl-6,8-difluoro-1,4-dihydro-4-oxoquinoline-3-carboxylic acid]",0.049,0.098,0.391,0.025,0.004,0.025,0.025,0.013,0.013,0.004,0.195,0.391,0.004,0.013,0.195,0.013,0.195,0.781,0.013,0.195,"ED50 (S. aureus 17740; Oral Administration): 128 mg/kg; ED50 (S. aureus 17740; sc, Subcutaneous Injection): 16.8 mg/kg; ED50 (P. mirabilis; Oral Administration): 7.13 mg/kg; ED50 (P. mirabilis; sc, Subcutaneous Injection): 1.36 mg/kg; LD50 (Acute Toxicity Test; ip, Intraperitoneal Injection): 605 mg/kg; LD50 (Acute Toxicity Test; Oral Administration): 3800 mg/kg"
"Nc1c(F)c(N2CCC3(CC3N)C2)c(F)c2c1c(=O)c(C(=O)O)cn2C1CC1 (stereo not shown) [Example 7, 7-(1-amino-5-azaspiro[2,4]heptane-5-yl)-1-cyclopropyl-5-amino-6,8-difluoro-1,4-dihydro-4-oxo-quinoline-3-carboxylic acid]",0.098,0.195,0.781,0.025,0.013,0.025,0.025,0.098,0.025,0.007,0.391,1.56,0.007,0.025,0.391,0.098,0.391,1.56,0.025,0.391,MIC [17]: 0.025 µg/mL; MIC [18]: 0.025 µg/mL; MIC [19]: 0.007 µg/mL; MIC [20]: 0.013 µg/mL; MIC [21]: 0.007 µg/mL; MIC [22]: 0.013 µg/mL; MIC [23]: 0.098 µg/mL; MIC [24]: 0.025 µg/mL; MIC [25]: 0.025 µg/mL; MIC [26]: 0.013 µg/mL; MIC [27]: 0.025 µg/mL; MIC [28]: 0.013 µg/mL; MIC [29]: 0.013 µg/mL; MIC [30]: 0.025 µg/mL; MIC [31]: 0.013 µg/mL; MIC [32]: 0.025 µg/mL; MIC [33]: 0.025 µg/mL; MIC [34]: 0.025 µg/mL; MIC [35]: 0.025 µg/mL
"CC(O)C(=O)O.NC1CC12CCN(c1c(F)cc3c(=O)c(C(=O)O)cn(C4CC4)c3c1F)C2 (stereo not shown) [Example 2, 7-(1-amino-5-azaspiro[2,4]heptane-5-yl)-1-cyclopropyl-6,8-difluoro-1,4-dihydro-4-oxoquinoline-3-carboxylic acid lactate]",,0.098,0.781,0.025,0.007,0.025,0.025,0.025,0.013,0.013,0.195,0.781,0.004,0.013,0.098,0.025,0.098,0.781,0.025,0.195,"MIC (Escherichia coli DC 2; Escherichia coli): 0.049 µg/mL; ED50 (S. aureus 17740; Oral Administration): 49.7 mg/kg; ED50 (S. aureus 17740; sc, Subcutaneous Injection): 97.6 mg/kg; LD50 (Acute Toxicity Test; ip, Intraperitoneal Injection): 580 mg/kg; LD50 (Acute Toxicity Test; Oral Administration): 3800 mg/kg"
"NC1CC12CCN(c1c(F)cc3c(=O)c(C(=O)O)cn(C4CC4)c3c1Cl)C2 (stereo not shown) [Example 3, 7-(1-amino-5-azaspiro[2,4]heptane-5-yl)-8-chloro-1-cyclopropyl-6-fluoro-1,4-dihydro-4-oxoquinoline-3-carboxylic acid]",0.025,0.025,0.781,0.025,< 0.002,0.004,0.007,0.025,0.004,< 0.002,0.098,0.781,< 0.002,0.004,0.391,0.004,0.195,0.781,0.007,0.195,"ED50 (P. mirabilis; Oral Administration): 2.58 mg/kg; ED50 (P. mirabilis; sc, Subcutaneous Injection): 0.63 mg/kg"
C[C@H]1COc2c(N3CCC4(CC4N)C3)c(F)cc3c(=O)c(C(=O)O)cn1c23 (stereo partly shown) [Example 13],0.098,0.195,1.56,0.098,0.049,0.049,0.098,0.098,0.049,0.004,0.391,1.56,0.025,0.049,0.195,0.098,0.391,1.56,0.049,0.391,"LD50 at 336 h (Acute Toxicity Test; ip, Intraperitoneal Injection): 620 mg/kg; LD50 at 336 h (Acute Toxicity Test; Oral Administration): 4000 mg/kg"
